System: IGROV1 complex spheroids (HUVEC, MSC), viability % test/control
Experiment: Anticancer human tumor IGROV1 cell line growth inhibition [GQUAD];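 further: spheroids exposed to compounds for 7 days before readout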
Settings: for IC50: curve of first compound; for viability, T/C: stronger effect = lower value
Excerpt: DNA G-quadruplex Stabilizer Agents in Combinations in Complex Spheroids
A high-throughput screen of multi-cell type tumor spheroids was designed to identify active combinations of DNA G-quadruplex stabilizer agents and targeted small molecules. Complex spheroids include a stromal component modeled by human endothelial cells (HUVEC) and fibroblasts modeled by human mesenchymal stem cells (MSCs). The concentration ranges selected for each drug and investigational agent were based upon clinically achievable concentrations if the clinical Cmax of the agent was known.
Compounds. The drugs and investigational agents: pidnarulex (CX-5461; NSC782164), APTO-253 (NSC789042), BRACO-19 (NSC847499), peposertib (NSC802822), ceralasertib (NSC780249), elimusertib (NSC800525), camonsertib (NSC841442), AZD-1390 (NSC803789), olaparib (NSC753686), talazoparib (NSC767125), ART-558 (NSC835418), sotorasib (NSC818433), MRTX-1133 (NSC836407), SN-38 (NSC673596), topotecan (NSC609699), etoposide (NSC141540), doxorubicin (NSC123127), gemcitabine (NSC613327), 5-fluorouracil (NSC19893), paclitaxel (NSC125973), vemurafenib (NSC761431), panobinostat (NSC761190), R-306465 (JNJ-16241199; NSC773264), adavosertib (NSC754352), TP-3654 (NSC805149), carboplatin (NSC241240), KSQ-4279 (NSC840948), and staurosporine (NSC755774) were obtained from the National Cancer Institute (NCI) Developmental Therapeutics Program Chemical Repository (34). The FDA-approved anticancer drug set is available from the NCI Developmental Therapeutics Program. […] The stock solutions were prepared in dimethyl sulfoxide (DMSO, Sigma-Aldrich, St. Louis, MO, cat. D2650) at 800-fold the tested concentration and stored at -70 degrees C prior to their use. All drugs and investigational agents were tested over a range starting from a high concentration at or near the clinical Cmax and decreasing in half-log increments. If the clinical Cmax for an agent had not been determined, the highest concentration tested was 10 microM.
2.3 Cell Culture. All cells were maintained in an incubator at 37 degrees C and 5% CO2 with 95% humidity. The PDC lines were cultured according to standard operating procedures established by the NCI PDMR. All PDCs were thawed and cultured in Matrigel-coated flasks prepared with a working solution of 1X Ham's F-12 nutrient mix, without supplementation (Invitrogen, cat. 11765054), 100 U/mL penicillin-streptomycin (Invitrogen, cat. 15140122), and 2.5% Matrigel (Corning Inc., cat. 354248) for the first three passages. The 857933-349-R-J2-PDC line was cultured in 6C/Colon 1B media, which includes advanced DMEM/F-12 (Thermo Fisher Scientific, cat. 12634028), 10 mM HEPES (Thermo Fisher Scientific, cat. 15630080), 1X GlutaMAX supplement (Thermo Fisher Scientific, cat. 35050061), 0.1 mg/mL primocin (InvivoGen, cat. ant-pm-2), 10% defined fetal bovine serum, heat inactivated (HyClone Laboratories Inc., cat. SH30070.03HI), 50% L-WRN conditioned media (ATCC, cat. CRL-3276), 1.25 mM N-Acetyl-L-cysteine (Sigma-Aldrich, cat. A9165), 10 mM nicotinamide (Sigma-Aldrich, cat. N0636), 1X B-27 supplement (Thermo Fisher Scientific, cat. 17504044), 1X N-2 supplement (Thermo Fisher Scientific, cat. 17502048), 10 microM Y-27632 dihydrochloride (Tocris Bioscience, cat. 1254), and 50 ng/mL human EGF recombinant protein (Thermo Fisher Scientific, cat. PHG0311). The 485176-168-R4-J1-PDC line was cultured in Panc media, which includes all 6C/Colon 1B media components plus 100 ng/mL human FGF-10 (Thermo Fisher Scientific, cat. 100-26), 500 nM SB-431542 (Selleckchem, cat. S1067), and gastrin (Tocris, cat. 3006).
[…]

[1] = second compound 0.0316 µM, first compound 0.0316 µM
[2] = second compound 0.0316 µM, first compound 0.1 µM
[3] = second compound 0.0316 µM, first compound 0.316 µM
[4] = second compound 0.0316 µM, first compound 1 µM
[5] = second compound 0.0316 µM, first compound 3.16 µM
[6] = second compound 0.0316 µM, first compound 10 µM
[7] = second compound 0.1 µM, first compound 0.0316 µM
[8] = second compound 0.1 µM, first compound 0.1 µM
[9] = second compound 0.1 µM, first compound 0.316 µM
[10] = second compound 0.1 µM, first compound 1 µM
[11] = second compound 0.1 µM, first compound 3.16 µM
[12] = second compound 0.1 µM, first compound 10 µM
[13] = second compound 0.316 µM, first compound 0.0316 µM
[14] = second compound 0.316 µM, first compound 0.1 µM
[15] = second compound 0.316 µM, first compound 0.316 µM
[16] = second compound 0.316 µM, first compound 1 µM
[17] = second compound 0.316 µM, first compound 3.16 µM
[18] = second compound 0.316 µM, first compound 10 µM
[19] = second compound 1 µM, first compound 0.0316 µM
[20] = second compound 1 µM, first compound 0.1 µM
[21] = second compound 1 µM, first compound 0.316 µM
[22] = second compound 1 µM, first compound 1 µM
[23] = second compound 1 µM, first compound 3.16 µM
[24] = second compound 1 µM, first compound 10 µM
[25] = second compound 3.16 µM, first compound 0.0316 µM
[26] = second compound 3.16 µM, first compound 0.1 µM
[27] = second compound 3.16 µM, first compound 0.316 µM
[28] = second compound 3.16 µM, first compound 1 µM
[29] = second compound 3.16 µM, first compound 3.16 µM
[30] = second compound 3.16 µM, first compound 10 µM
[31] = second compound 10 µM, first compound 0.0316 µM
[32] = second compound 10 µM, first compound 0.1 µM
[33] = second compound 10 µM, first compound 0.316 µM
[34] = second compound 10 µM, first compound 1 µM
[35] = second compound 10 µM, first compound 3.16 µM
[36] = second compound 10 µM, first compound 10 µM

C#Cc1c(F)ccc2cc(O)cc(-c3ncc4c(N5CC6CCC(C5)N6)nc(OCC56CCCN5CC(F)C6)nc4c3F)c12 (centres undefined) + Cc1cnc(CNC(=O)c2c(=O)c3ccc(N4CCCN(C)CC4)nc3n3c2sc2ccccc23)cn1
IC50 (second compound 0.0316 µM): 2820 nM | IC50 (second compound 0.1 µM): < 31.6 nM | IC50 (second compound 0.316 µM): < 31.6 nM | IC50 (second compound 1 µM): < 31.6 nM | IC50 (second compound 3.16 µM): < 31.6 nM | IC50 (second compound 10 µM): < 31.6 nM | viability, T/C [1]: 70% | viability, T/C [2]: 67.6% | viability, T/C [3]: 58.5% | viability, T/C [4]: 56.4% | viability, T/C [5]: 47.6% | viability, T/C [6]: 45.3% | viability, T/C [7]: 40.6% | viability, T/C [8]: 41.9% | viability, T/C [9]: 36.5% | viability, T/C [10]: 27.3% | viability, T/C [11]: 35.8% | viability, T/C [12]: 17.3% | viability, T/C [13]: 21.4% | viability, T/C [14]: 21.5% | viability, T/C [15]: 20.7% | viability, T/C [16]: 24.7% | viability, T/C [17]: 18.3% | viability, T/C [18]: 15.1% | viability, T/C [19]: 16.7% | viability, T/C [20]: 16.4% | viability, T/C [21]: 11.1% | viability, T/C [22]: 13.3% | viability, T/C [23]: 14.5% | viability, T/C [24]: 7.91% | viability, T/C [25]: 9.65% | viability, T/C [26]: 9.22% | viability, T/C [27]: 8.28% | viability, T/C [28]: 10.1% | viability, T/C [29]: 10% | viability, T/C [30]: 6.58% | viability, T/C [31]: 7.28% | viability, T/C [32]: 7.39% | viability, T/C [33]: 9.03% | viability, T/C [34]: 8.87% | viability, T/C [35]: 8.84% | viability, T/C [36]: 7.64%

C=CC(=O)N1CCN(c2nc(=O)n(-c3c(C)ccnc3C(C)C)c3nc(-c4c(O)cccc4F)c(F)cc23)C(C)C1 (centres undefined) + Cc1cnc(CNC(=O)c2c(=O)c3ccc(N4CCCN(C)CC4)nc3n3c2sc2ccccc23)cn1
IC50 (second compound 0.0316 µM): > 10000 nM | IC50 (second compound 0.1 µM): 78.4 nM | IC50 (second compound 0.316 µM): < 31.6 nM | IC50 (second compound 1 µM): < 31.6 nM | IC50 (second compound 3.16 µM): < 31.6 nM | IC50 (second compound 10 µM): < 31.6 nM | viability, T/C [1]: 82.8% | viability, T/C [2]: 77.2% | viability, T/C [3]: 88.5% | viability, T/C [4]: 60.1% | viability, T/C [5]: 94.6% | viability, T/C [6]: 66.9% | viability, T/C [7]: 51.8% | viability, T/C [8]: 49.3% | viability, T/C [9]: 51.4% | viability, T/C [10]: 43.8% | viability, T/C [11]: 46.6% | viability, T/C [12]: 51.4% | viability, T/C [13]: 27% | viability, T/C [14]: 44.7% | viability, T/C [15]: 39.8% | viability, T/C [16]: 33.4% | viability, T/C [17]: 44.9% | viability, T/C [18]: 28.6% | viability, T/C [19]: 18.5% | viability, T/C [20]: 20.1% | viability, T/C [21]: 17% | viability, T/C [22]: 17.7% | viability, T/C [23]: 26.8% | viability, T/C [24]: 19.7% | viability, T/C [25]: 10.2% | viability, T/C [26]: 11.6% | viability, T/C [27]: 11.6% | viability, T/C [28]: 12.5% | viability, T/C [29]: 15.6% | viability, T/C [30]: 12.9% | viability, T/C [31]: 12.3% | viability, T/C [32]: 16.2% | viability, T/C [33]: 16.6% | viability, T/C [34]: 15.6% | viability, T/C [35]: 14.6% | viability, T/C [36]: 10%
